Key:
[1] = biological target: T1, elastase of the abdominal salivary gland (serine protease) (Sus scrofa, UniProt P00772); test: In tubo antielastase test, elastin connected with Congo red; format: biochemical
Experimental: (§1) The in tubo tests are carried out with an elastase of the abdominal salivary gland (serine protease) using two types of substrate: a synthetic color-forming (chromogenic) substrate and a natural substrate consisting of elastin connected with Congo red.
(§2) Incubation lasts 30 minutes at room temperature and coloration is measured at 410 nm and 520 nm.
(§3) The inhibition test standard tested for comparison is 1 antitrypsin.

[2] = biological target: T1, elastase of the abdominal salivary gland (serine protease); test: In tubo antielastase test, synthetic chromogenic substrate; format: biochemical
Experimental: as §1, §2, §3

B16 melanocytes = test: In vitro melanogenesis inhibition test on B16 melanocytes; format: cell-based; details: 0.3% dose
Experimental: In Vitro Melanogenesis Inhibition Test on B16 Melanocytes inoculation of the melanocytes into a growth substrate, incubation for three days at 37° C., CO2=5%, introduction of the Lannea coromandelica extracts into a medium which activates melanogenesis, […]
spectrophotometric dosing of the proteins (co-called Bradford method) and the melanin (DO at 475 nm) into the homogenized melanocytes, calculation of an activity index which corresponds to the ratio (protein level/melanin level) for an optimal dose of extract.
It follows that the higher the index (>1), the greater the ability to inhibit melanogensis.

[3] = tested on: singlet oxygen on type I collagen; test: Anti-singlet oxygen effect on type I collagen (viscosity, riboflavin + UV-A)
From the text: Collagen is a dermal glycoprotein which is very sensitive to the activity of the reactive form of oxygen (or FRO). It was shown that singlet oxygen (O2^1) produces troublesome crosslinkings among the proteins.
The principle of this test is based on measurement of the viscosity of an aqueous solution of type I collagen in the presence of a photochemical O2^1-evolving system.
O2^1, which is produced by riboflavin in the presence of UV-A, causes the collagen to gel in the presence of glucose which is reflected in an increase in viscosity. This effect is inhibited by the molecules which expose O2^1, such as thiourea or aminoguanidine for example.
Viscosity is evaluated by measurement of the throughflow time through the capillary of a “Cannon Fenske” viscosimeter.

tyrosinase = test: In tubo tyrosinase inhibition test (L-DOPA, dopachromium DO at 475 nm); format: biochemical; details: extract concentration producing 50% inhibition of the enzyme activity
From the text: In Tubo Tyrosinase Inhibition Test mixing of the L-DOPA with tyrosinase and the Lannea coromandelica extracts to be tested, recording of the DO at 475 nm of the dopachromium, calculation of the kinetics, then the CI50 (extract concentration which produces a 50% inhibition of the enzyme activity).

human fibroblasts = test: Anti-UVA cytophotoprotection test on human fibroblasts; format: cell-based; details: UV-A 15 J/cm^2
From the text: d) Anti-UVA-Cytophotoprotection Test on Human Fibroblasts
This in vitro test evaluates the ability of Lannea coromandelica extracts according to the invention to afford human fibroblasts cytophotoprotection against UV-A.
The UV-As are selected as a study model because they penetrate into the inner skin and introduce an oxidizing stress into the skin which is reflected in particular in a lipoperoxidation of the cytoplasmic membrane. The lipoperoxides formed split up into malonaldialdehydes (MDAs) which are responsible for the crosslinking of numerous biological molecules, such as proteins for example (enzyme inhibition), and nuclein bases (mutagenesis).
Fibroblasts are inoculated into a nutrient medium defined with calf foetus serum. The Lannea coromandelica extract was added 2 to 3 days after inoculation. After incubation for 2 to 3 days at 37° C./CO2=5%, the nutrient medium is replaced by a salt solution and the fibroblasts are exposed to a dose of UV-A (15 J/cm^2).
After the exposure, the MDA level in the salt solution floating on the surface is determined and the protein level in the fibroblasts is measured. The MDA level is determined by reaction to thiobarbituric acid while the protein levels are determined by the Bradford method.

[4] = Anti-DPPH° test (anti-radical effect); details: for level of leuco compound formed (in % in relation to the control): average of 2 tests
From the text: a) DPPH° Test DPPH (diphenyl picryl hydrazyl) is a stable, free, violet-colored radical which is modified in its leuco compound by the substances that trap the free radicals (=scavenger or bait effect). The result is expressed in leuco compound levels which are formed in the presence of the active agent (in % in relation to the control with no active principle).

[5] = Anti-HO° test with deoxyribose (Fenton reaction) with EDTA; details: for percentage inhibition of the hydroxylation rate: average of 2 tests
Experimental: (§4) Anti-HO°-Test with Deoxyribose (Fenton Reaction) These tests evaluate the ability of an active substance to eliminate (“bait”) HO° produced by the Fenton reaction (H2O2 in the presence of iron). HO° can be exposed by deoxyribose. Deoxyribose is an essential compound of ADN which is oxidized and then fragmented by HO°. The oxidation product of deoxyribose is exposed by condensation with thiobarbituric acid (measurement of optical density at 532 nm). This test is carried out with and without EDTA in order to determine the ability of the extract to form active complex compounds with iron (“[…] effect”).

[6] = Anti-HO° test with deoxyribose (Fenton reaction) without EDTA; details: for percentage inhibition of the hydroxylation rate: average of 2 tests
Experimental: as §4

[7] = Anti-anion superoxide test (hypoxanthine/xanthine oxidase) with luminol; format: biochemical; details: for percentage inhibition, test with luminol: average of 2 tests
From the text: (§5) *Anti-Anion Superoxide Effect (O2.^−) O2.^− is produced during the oxidizing stress through the introduction of an enzyme, xanthine oxidase (XOD), which degrades the excess hypoxanthine (HX) during an interruption in or disruption of the energy metabolism in living tissue. O2.^− is toxic, particularly because of its ability to form hydrogen peroxide (H2O2)—which in turn forms a source of HO^• through the Fenton reaction—either spontaneously or in the presence of Superoxid-Dismutase (SOD). The biochemical tests are carried out with HX in the presence of XOD and the O2.^− are exposed by luminol or a mixture of luminol and peroxidase, which exposes O2.^− and H2O2, or by a tetrazolium salt (NBT) which forms a red compound evaluated at 540 nm.

[8] = Anti-anion superoxide test (hypoxanthine/xanthine oxidase) with luminol + microperoxidase; format: biochemical; details: for percentage inhibition, test with luminol + microperoxidase: average of 2 tests
From the text: as §5

[9] = Anti-anion superoxide test (hypoxanthine/xanthine oxidase) with NBT; format: biochemical; details: for percentage inhibition, test with NBT: average of 2 tests
From the text: as §5

[10] = tested on: clostridium hystoliticum collagenase; test: In tubo anticollagenase test (FALGPA substrate); format: biochemical
Experimental: b) In Tubo Anticollagenase Test
The tests are carried out with a clostridium hystoliticum collagenase and a synthetic chromogenic substrate: FALGPA. Incubation lasts 3O minutes at room temperature and optical density is measured at 324 nm. The inhibition test standard tested for comparison is cysteine.
The results are set out in Table X below which emphasizes the anticollagenase activity of the Lannea coromandelica extracts (results in percentage inhibition).

T1 sequence (P00772 27-266): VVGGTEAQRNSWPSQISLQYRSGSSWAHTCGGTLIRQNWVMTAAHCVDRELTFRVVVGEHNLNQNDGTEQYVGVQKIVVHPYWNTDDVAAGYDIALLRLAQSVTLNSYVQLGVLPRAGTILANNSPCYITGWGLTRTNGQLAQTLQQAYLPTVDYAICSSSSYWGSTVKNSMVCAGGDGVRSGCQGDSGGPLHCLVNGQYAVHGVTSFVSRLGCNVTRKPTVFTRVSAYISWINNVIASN

For “1α antitrypsin: inhibition test standard tested for comparison in the antielastase test”, the “Cl50 antielastase, elastin connected with Congo red” value [1] was “NB: Cl50 in % by wt./vol. for 1α antitrypsin = 0.04%” and the “Cl50 antielastase, synthetic substrate” value [2] was “NB: Cl50 in % by wt./vol. for 1α antitrypsin = 0.04%”.
For OC[C@H]1O[C@@H](Oc2ccc(O)cc2)[C@H](O)[C@@H](O)[C@@H]1O [Arbutin], the “I = activity index on B16 melanocytes (protein level/melanin level)” value (B16 melanocytes) was “I = 3.14 (for the 0.3% dose)”.
In the case of N=C(N)NN [Aminoguanidine, aminoguanidine], the “Cl50 photoprotection of type I collagen” value [3] is reported as 0.004 % (wt./vol.), the “photoprotective effect on type I collagen, percentage inhibition” value ([3]; dose 0.005% (wt./vol.)) is reported as 57% and the “photoprotective effect on type I collagen, percentage inhibition” value ([3]; dose 0.015% (wt./vol.)) is reported as 75%.
In the case of Oc1ccc(O)cc1 [Hydroquinone], the “Cl50 in tubo tyrosinase inhibition” value (tyrosinase) is reported as “Cl50 = 0.025% by wt./vol”.
In the case of Vitamin E, the “MDA level in % in relation to the irradiated control” value (human fibroblasts; 0.0003%) is reported as 21%, the “Proteins in % in relation to the non-irradiated control” value (human fibroblasts; 0.0003%) is reported as 97% and the “MDA level in % in relation to the irradiated control” value (human fibroblasts; 0.001%) is reported as 8%. For the same molecule, the “Proteins in % in relation to the non-irradiated control” value (human fibroblasts; 0.001%) was 98%.
In the case of O=C1O[C@H]([C@@H](O)CO)C(O)=C1O [Ascorbic acid], the “Cl50 anti-DPPH° test” value [4] is reported as 0.0013 % (wt./vol.), the “level of leuco compound formed (in % in relation to the control)” value ([4]; dose 0.001% (wt./vol.)) is reported as 49% and the “level of leuco compound formed (in % in relation to the control)” value ([4]; dose 0.01% (wt./vol.)) is reported as 75%. The “Cl50 Fenton reaction with EDTA” value [5] was 0.26 % (wt./vol.), the “percentage inhibition of the hydroxylation rate” value ([5]; dose 0.1% (wt./vol.)) was 45% and the “percentage inhibition of the hydroxylation rate” value ([5]; dose 1% (wt./vol.)) was 73%. The “Cl50 Fenton reaction without EDTA” value [6] was 0.9 % (wt./vol.), the “percentage inhibition of the hydroxylation rate” value ([6]; dose 0.01% (wt./vol.)) was 5% and the “percentage inhibition of the hydroxylation rate” value ([6]; dose 0.03% (wt./vol.)) was 75%. The “percentage inhibition of the hydroxylation rate” value ([6]; dose 0.1% (wt./vol.)) was 2%, the “percentage inhibition of the hydroxylation rate” value ([6]; dose 1% (wt./vol.)) was 56% and the “Cl50 test with luminol” value [7] was 0.0006 % (wt./vol.). The “percentage inhibition, test with luminol” value ([7]; dose 0.0001% (wt./vol.)) was 5%, the “percentage inhibition, test with luminol” value ([7]; dose 0.001% (wt./vol.)) was 92% and the “percentage inhibition, test with luminol” value ([7]; dose 0.01% (wt./vol.)) was 100%. The “Cl50 test with luminol + microperoxidase” value [8] was 0.0058 % (wt./vol.), the “percentage inhibition, test with luminol + microperoxidase” value ([8]; dose 0.001% (wt./vol.)) was 0% and the “percentage inhibition, test with luminol + microperoxidase” value ([8]; dose 0.01% (wt./vol.)) was 94%. The “Cl50 test with NBT” value [9] was 0.5909 % (wt./vol.), the “percentage inhibition, test with NBT” value ([9]; dose 0.01% (wt./vol.)) was 15% and the “percentage inhibition, test with NBT” value ([9]; dose 0.1% (wt./vol.)) was 32%. The “percentage inhibition, test with NBT” value ([9]; dose I % (wt./vol.)) was 65%.
For N[C@@H](CS)C(=O)O [cysteine], the Cl50 anticollagenase [10] was “NB: Cl50 in % by wt./vol. of cysteine = 2.4%”.

From patent publication US20040018259A1, “Use of at least one extract of a plant of the genus lannea in a cosmetic or dermopharmaceutical composition” (priority 1999, published 2004)
